Laboratory results published in ChEMBL document CHEMBL1201862, “PubChem BioAssay data set” (2004).
Activity calls are given as the source filed them. Cut-off read from the data, not from the text of the source, for most assays here: actives have a measured EC50 and inactives only a lower limit.

Assays:
[1] = target: T1, Ubiquitin-conjugating enzyme E2 N (Homo sapiens, UniProt P61088); type: functional;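 note: Dose-response confirmation in a TR-FRET assay detecting UBC13-driven polyubiquitin chain formation, inhibition measured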
T1 sequence (P61088 whole entry): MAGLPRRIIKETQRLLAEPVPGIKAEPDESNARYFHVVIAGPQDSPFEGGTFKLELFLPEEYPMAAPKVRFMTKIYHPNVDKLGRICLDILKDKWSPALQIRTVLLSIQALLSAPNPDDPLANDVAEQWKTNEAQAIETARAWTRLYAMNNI

[2] = target: T2, Corticotropin-releasing factor receptor 2/Corticotropin-releasing factor-binding protein (Homo sapiens, UniProt P24387+Q13324); test: activators of CRF receptor 2 with binding protein – uHTS hits, confirmation (AID 602473); type: functional; conditions: read-out: EC50_Mean
T2 sequence (Q13324 whole entry): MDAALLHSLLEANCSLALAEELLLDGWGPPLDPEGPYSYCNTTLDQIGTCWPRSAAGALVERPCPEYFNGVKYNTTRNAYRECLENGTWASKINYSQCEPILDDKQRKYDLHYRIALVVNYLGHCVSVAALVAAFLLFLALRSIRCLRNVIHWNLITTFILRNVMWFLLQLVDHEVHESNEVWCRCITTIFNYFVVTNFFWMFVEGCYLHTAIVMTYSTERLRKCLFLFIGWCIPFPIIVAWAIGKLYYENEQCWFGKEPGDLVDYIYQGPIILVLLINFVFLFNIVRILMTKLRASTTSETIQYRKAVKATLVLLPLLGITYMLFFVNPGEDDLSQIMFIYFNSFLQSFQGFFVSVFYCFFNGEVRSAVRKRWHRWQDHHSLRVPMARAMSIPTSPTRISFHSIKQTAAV
T2 sequence (P24387 whole entry): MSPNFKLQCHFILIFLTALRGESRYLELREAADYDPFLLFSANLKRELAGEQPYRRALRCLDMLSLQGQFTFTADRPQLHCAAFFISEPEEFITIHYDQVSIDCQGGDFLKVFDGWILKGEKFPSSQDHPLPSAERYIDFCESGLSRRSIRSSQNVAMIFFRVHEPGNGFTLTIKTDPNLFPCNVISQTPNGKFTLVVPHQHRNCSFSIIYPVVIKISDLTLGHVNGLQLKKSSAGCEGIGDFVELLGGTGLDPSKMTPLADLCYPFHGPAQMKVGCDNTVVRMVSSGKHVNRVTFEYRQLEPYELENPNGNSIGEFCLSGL

[3] = test system: Streptococcus sp. 'group A'; test: growth inhibition of control SK(-) GAS strain, dose response, counter-screen for streptokinase expression inhibitor project, luminescence, kanamycin, BacTiterGlo, confirmation (AID 1900); type: functional, organism-based
Streptokinase A = target: T3, Streptokinase A (Streptococcus pyogenes serotype M1, UniProt P10520); test: S. pyogenes streptokinase expression inhibitors, potency, dose response, plasminogen activation absorbance, OD405 (AID 1914); type: functional, Streptococcus pyogenes M1 GAS;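 note: secreted streptokinase activity via plasminogen activation per viability signal from cell pellet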
T3 sequence (P10520 whole entry): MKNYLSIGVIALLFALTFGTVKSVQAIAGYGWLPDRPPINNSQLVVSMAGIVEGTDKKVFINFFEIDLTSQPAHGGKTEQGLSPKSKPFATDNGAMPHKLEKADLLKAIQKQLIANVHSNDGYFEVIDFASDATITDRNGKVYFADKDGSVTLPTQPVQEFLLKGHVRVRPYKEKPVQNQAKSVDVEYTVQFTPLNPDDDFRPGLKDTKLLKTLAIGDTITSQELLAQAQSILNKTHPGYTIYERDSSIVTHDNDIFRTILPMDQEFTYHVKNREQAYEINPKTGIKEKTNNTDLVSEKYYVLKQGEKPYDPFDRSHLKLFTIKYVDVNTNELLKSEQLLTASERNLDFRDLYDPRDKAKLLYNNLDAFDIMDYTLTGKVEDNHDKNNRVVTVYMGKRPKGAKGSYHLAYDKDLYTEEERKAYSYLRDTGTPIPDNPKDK

Streptococcus = test: Group A Streptococcus viability loss, dose response, counter-screen for streptokinase expression inhibitor project, luminescence, BacTiterGlo (AID 1915); type: functional, organism-based;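 note: potency for reduction of bacterial viability or growth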
Cytochrome P450 3A4 = Cytochrome P450 3A4 (Homo sapiens, UniProt P08684); conditions: Potency;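 note: confirmatory qHTS run detecting inhibitors and substrates of CYP3A4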
Cytochrome P450 3A4, sequence (P08684 whole entry, the tested form may be a part): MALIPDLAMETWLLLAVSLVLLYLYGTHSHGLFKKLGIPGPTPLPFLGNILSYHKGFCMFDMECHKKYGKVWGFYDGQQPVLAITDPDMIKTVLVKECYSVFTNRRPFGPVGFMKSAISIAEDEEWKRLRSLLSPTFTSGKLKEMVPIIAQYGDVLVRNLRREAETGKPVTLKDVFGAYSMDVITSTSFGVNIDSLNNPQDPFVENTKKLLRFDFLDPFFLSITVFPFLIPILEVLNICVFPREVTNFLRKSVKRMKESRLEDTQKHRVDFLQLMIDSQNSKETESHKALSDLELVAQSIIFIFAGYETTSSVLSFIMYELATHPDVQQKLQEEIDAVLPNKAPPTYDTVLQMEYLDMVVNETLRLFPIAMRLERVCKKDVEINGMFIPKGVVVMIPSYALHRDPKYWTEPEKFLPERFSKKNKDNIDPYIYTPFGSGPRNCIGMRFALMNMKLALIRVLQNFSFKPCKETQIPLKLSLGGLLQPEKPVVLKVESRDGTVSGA

[4] = target: T4, RNA-binding protein pos-1 (Caenorhabditis elegans, UniProt G5EF15); test: inhibitors of POS-1/mex-3 RNA binding, dose response, biochemical, fluorescence polarization (AID 1964);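 note: purified POS-1 fused to maltose binding protein made in E. coli; potency of compounds blocking POS-1 binding to fluorescent RNA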
T4 sequence (G5EF15 whole entry): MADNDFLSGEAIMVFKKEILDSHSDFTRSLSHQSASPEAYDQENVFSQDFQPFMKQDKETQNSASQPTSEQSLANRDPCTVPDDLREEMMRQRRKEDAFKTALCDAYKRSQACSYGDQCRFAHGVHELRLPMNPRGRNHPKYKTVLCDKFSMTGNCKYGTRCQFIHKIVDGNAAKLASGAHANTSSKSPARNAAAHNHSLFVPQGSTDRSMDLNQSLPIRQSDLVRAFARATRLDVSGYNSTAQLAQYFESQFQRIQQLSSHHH

[5] = target: T5, Zinc finger protein mex-5 (Caenorhabditis elegans, UniProt Q9XUB2); test: MEX-5/TCR-2 RNA interaction inhibitors, dose response, biochemical, C. elegans, fluorescence polarization (AID 1960)
T5 sequence (Q9XUB2 whole entry): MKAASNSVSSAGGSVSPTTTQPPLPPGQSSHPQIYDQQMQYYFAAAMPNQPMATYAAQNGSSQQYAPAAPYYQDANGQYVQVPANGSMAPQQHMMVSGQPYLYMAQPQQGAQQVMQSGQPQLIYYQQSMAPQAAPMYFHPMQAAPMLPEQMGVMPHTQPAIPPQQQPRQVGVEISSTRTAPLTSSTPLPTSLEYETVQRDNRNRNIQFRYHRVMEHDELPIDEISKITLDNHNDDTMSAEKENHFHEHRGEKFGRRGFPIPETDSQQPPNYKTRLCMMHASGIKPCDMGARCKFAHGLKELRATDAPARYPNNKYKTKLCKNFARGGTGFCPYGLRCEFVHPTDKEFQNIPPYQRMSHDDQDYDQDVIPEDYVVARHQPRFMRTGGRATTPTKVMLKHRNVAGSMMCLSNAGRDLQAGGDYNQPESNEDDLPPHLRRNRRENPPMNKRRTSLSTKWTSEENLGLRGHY

[6] = target: FAD-linked sulfhydryl oxidase ALR (Homo sapiens, UniProt P55789); test: inhibitors of human ALR sulfhydryl oxidase, dose response, biochemical, H2O2 detection, luminescence, cherry-pick (AID 493248)
FAD-linked sulfhydryl oxidase ALR, sequence (P55789 whole entry): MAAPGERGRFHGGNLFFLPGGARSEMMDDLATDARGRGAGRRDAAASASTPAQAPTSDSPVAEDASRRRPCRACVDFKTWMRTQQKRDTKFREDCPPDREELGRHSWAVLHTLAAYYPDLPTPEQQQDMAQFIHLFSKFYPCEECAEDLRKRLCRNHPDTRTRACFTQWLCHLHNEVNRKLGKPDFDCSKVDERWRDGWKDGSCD

[7] = target: T6, Calpain-2 catalytic subunit (Sus scrofa, UniProt P43367); test: pig calpain II inhibitor potency, dose response, biochemical, fluorogenic peptide substrate (AID 1420); type: functional
T6 sequence (P43367 whole entry): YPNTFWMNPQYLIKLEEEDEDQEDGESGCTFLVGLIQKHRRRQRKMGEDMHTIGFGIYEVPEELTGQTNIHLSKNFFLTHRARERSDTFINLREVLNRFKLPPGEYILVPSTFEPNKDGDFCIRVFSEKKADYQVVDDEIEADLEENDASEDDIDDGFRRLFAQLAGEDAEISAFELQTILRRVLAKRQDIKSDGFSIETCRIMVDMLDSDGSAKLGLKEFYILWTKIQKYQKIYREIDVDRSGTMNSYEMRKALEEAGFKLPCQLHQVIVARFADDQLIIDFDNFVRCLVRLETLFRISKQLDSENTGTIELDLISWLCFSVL

[8] = THP-1 cell cytotoxicity, dose response, cytotoxicity control for non-replicating M. tuberculosis project (AID 489025); type: functional
[9] = inhibitors of intracellular T. cruzi replication, confirmation, NIH3T3 host cells, beta-gal luminescence (AID 2044); type: functional, cell-based;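 note: intracellular parasites grown in NIH/3T3 mouse fibroblasts as host cells; luminescent beta-galactosidase reporter signal from transgenic T. cruzi replicating inside host cells; inhibitors lower the luminescence signal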
[10] = cytotoxicity toward NIH3T3 fibroblasts, dose response, counter-screen, cell-based, ATP luminescence, mouse fibroblasts (AID 2010); type: functional;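 note: cells exposed to compound for about 90 hours before reading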

CCCCC(=O)NC(=S)NNC(=O)c1ccc(OC)cc1
IC50 [1]: > 20 µM (inactive) | EC50 [2]: 5.06 µM (active)

Cc1cccc(Cn2nc(-n3cccc3)c3c(C)cc(C)nc32)c1
EC50 [3]: 12 µM (active) | EC50 (Streptokinase A): 15.1 µM (active) | EC50 (Streptococcus): > 150 µM (not active)

CC1(C)Cc2c(c(N3CCOCC3)nc3sc4c(=O)nc[nH]c4c23)CS1
IC50 [1]: > 20 µM (inactive)

CC(=O)OC1C2C(OC(=O)Cc3ccccc3)C(C)CC2(OC(C)=O)C(=O)/C(C)=C/C2C(CC[C@@]13CO3)C2(C)C (stereo partly drawn)
AC50 (Cytochrome P450 3A4): 3.98 µM (inconclusive)

CCN(CC)CCn1c(-c2ccccc2)nc2c(NC3CCCCC3)nc(C)nc21
AC50 (Cytochrome P450 3A4): 15.8 µM (inconclusive)

O=C(C1=C(O)C(=O)N(c2ncccn2)C1c1cccs1)c1ccco1 (stereo not drawn)
EC50 [4]: 39.9 µM (active) | EC50 [5]: 31.5 µM (active)

N#CC1=C(N)OC2=C(C(=O)CCC2)C1c1ccc2c(c1)OCO2 (stereo not drawn)
EC50 [4]: > 300 µM (not active) | EC50 [5]: > 300 µM (not active)

O=P(N[C@@H](c1ccccc1)[C@@H]1C[C@H]1CO)(c1ccccc1)c1ccccc1
AC50 (Cytochrome P450 3A4): 15.8 µM (inconclusive)

Cc1ccc(S(=O)(=O)NNC(=O)c2ccc3ccccc3n2)cc1
AC50 [6]: 7 µM (active)

CC1(OC(=O)c2ccc(Cl)nc2)C(=O)C=C2C=C(c3ccsc3)OC=C2C1=O (stereo not drawn)
EC50 [4]: 54.4 µM (active) | EC50 [5]: 41.9 µM (active)

C=CC[n+]1c(C)csc1Nc1cccc(Br)c1
AC50 [6]: 7.54 µM (active)

CC(=O)Nc1ccc2c(c1)C(=O)N(c1cccc(C)c1)C2=O
IC50 [1]: > 20 µM (inactive)

O=C(CSc1nnc(CNC(=O)c2ccccc2)o1)NCCc1ccccc1
EC50 [3]: > 150 µM (not active) | EC50 (Streptokinase A): > 150 µM (not active) | EC50 (Streptococcus): > 150 µM (not active)

N#C/C(=C(/O)c1cc2ccccc2o1)c1nc2ccccc2s1
EC50 [4]: > 300 µM (not active) | EC50 [3]: 9.28 µM (active) | EC50 [5]: > 300 µM (not active) | EC50 (Streptococcus): 42.4 µM (active)

C[C@@H]1CC2(OC3C[C@@]4(C)C5=CC[C@H]6C(C)(C)C(O[C@@H]7OC[C@@H](O)[C@H](O)[C@H]7O)CC[C@@]67C[C@@]57CC[C@]4(C)C31)OC(O)C1(C)OC21 (stereo partly drawn)
AC50 (Cytochrome P450 3A4): 5.01 µM (inconclusive)

Cc1ccc(S(=O)(=O)Nc2c(C(=O)O)[nH]c3ccccc23)cc1C
AC50 [6]: 10.8 µM (active)

Cn1nc(N)c2c(-c3ccc(Cl)cc3)c(C#N)c(N)nc21
IC50 [1]: > 20 µM (inactive)

CCCCNc1nc(C)nc2c1nc(-c1ccccc1)n2CCCN(CC)CC
AC50 (Cytochrome P450 3A4): 25.1 µM (inconclusive)

CCC(=O)NC(=S)NNC(=O)c1ccc(OC)cc1
IC50 [1]: > 20 µM (inactive)

COC(=O)CNC(=O)C1(C)C=CC2(CCCCC2)N1C(C)=O (stereo not drawn)
AC50 (Cytochrome P450 3A4): 25.1 µM (inconclusive)

O=C(NCc1cccnc1)c1ccccc1CCc1ccccc1
IC50 [7]: 18.8 µM (not active)

COC(=O)C1=C(C)N(CC2CC2)C(NCc2cccc(Cl)c2)=N[C@H]1c1ccccc1
CC50 [8]: 22.5 µM (active)

COC(=O)c1cccc(NC(=O)Cc2coc3cc(OC)ccc23)c1
IC50 [1]: > 20 µM (inactive)

COc1ccc(CNc2oc(COc3ccc(Cl)cc3)nc2C#N)cc1
EC50 [9]: 1.36 µM (active) | IC50 [7]: 4 µM (not active) | EC50 [10]: > 60 µM (not active)

O=C(C1CCC(=O)N1C1CCCCC1)N1CCC2(CC1)OCCO2 (stereo not drawn)
IC50 [7]: 8.43 µM (not active)

Nc1nc(NC(=O)/C=C/c2ccc(F)cc2)nn1-c1ccccc1
EC50 [3]: 3.91 µM (active) | EC50 (Streptokinase A): > 150 µM (not active) | EC50 (Streptococcus): > 150 µM (not active)

Nc1cc(Cl)c([N+](=O)[O-])cc1O
AC50 (Cytochrome P450 3A4): 31.6 µM (inconclusive)

O=c1cc(CO)oc(C(Nc2cccc([N+](=O)[O-])c2)c2ccccn2)c1O (stereo not drawn)
IC50 [1]: > 20 µM (inactive)

C=CCn1c(COc2ccccc2)nnc1SCC(=O)N/N=C/c1cc(Cl)ccc1O
EC50 [3]: 4.37 µM (active) | EC50 (Streptokinase A): > 150 µM (not active) | EC50 (Streptococcus): 48.1 µM (active)

CCC(C)[C@@H](N)C(=O)N/N=C/c1cccc2nccnc12 (stereo partly drawn)
EC50 [4]: > 300 µM (not active) | EC50 [5]: > 300 µM (not active)

Cc1ccc(Cn2c(N/N=C/c3ccncc3)nc3c2c(=O)n(C)c(=O)n3C)cc1
AC50 [6]: 1.77 µM (active)

CC(NC(=O)c1ccccc1)C(=O)N/N=C/c1ccc(O)cc1 (stereo not drawn)
AC50 [6]: 2.14 µM (active)

CCN1/C(=C/C(C)=O)Sc2ccc(OC)cc21
AC50 (Cytochrome P450 3A4): 25.1 µM (inconclusive)

COc1cc(-c2coc3cc(OCc4ccccc4)c(OC)c(O)c3c2=O)cc(O)c1OC [IRIGENIN, 7-BENZYL ETHER]
AC50 (Cytochrome P450 3A4): 15.8 µM (inconclusive)

COC1=CC(=O)C(O)=C/C1=C\C=C\c1ccccc1 [OBTUSAQUINONE]
AC50 (Cytochrome P450 3A4): 25.1 µM (inconclusive)
